Tested on: Methicillin Resistant Staphylococcus aureus (MRSA), Escherichia coli and/or Candida albicans
Assay: Minimal inhibitory concentration (MIC) assay, microdilution
Assay type: cell-based
Details: MIC not more than 1 dilution from the reference peptide (Pep001 or MD012) counts as equal activity
From the text: To compare antimicrobial activity of the mutants, the inventors made use of the minimal inhibitory concentration (MIC) assay, extensively described in the literature and which has become a world wide standardized test for, e.g., determining susceptibility of strains towards antibiotics (reference “National Committee for Clinical Laboratory Standards: Performance standards for antimicrobial susceptibility testing; fourteenth informational supplement. M100-S14, Volume 24, Wayne, Pa.; 2004.”). The MIC assay is a fast, reliable assay that is used throughout the world in medical microbiology divisions to test e.g., antibiotic response of clinical isolates to monitor antibiotic therapy. MIC values represent the lowest concentration of antibiotic or antifungal that inhibits >90% of growth of the micro-organism. In hospitals MIC values are also used to determine strength of antibiotic therapy where one of the pharmacokinetic parameters is expressed as “hours over MIC”. The inventors therefore feel that MIC values, in contrast to e.g., killing assays, more closely relate to clinical efficacy of the drug and predict more correctly the success of a drug in the clinic.
Antimicrobial properties of the different peptides against a gram negative bacteria (Escherichia coli ATCC 035), a gram positive bacteria (Methicillin Resistant Staphylococcus aureus (MRSA) ATCC 2141) both obtained from the American Type Culture Collection (ATCC, Manassas (VA), USA) and Yeast (Candia Albicans Y01-19; clinical isolate of LUMC, Leiden, the Netherlands) were used for the MIC determination.
Minimal inhibitory concentrations (MICs) were determined by microdilution method according to CLSI guidelines using RPMI1640 medium diluted 1:4 in […] sterile filtered MilliQ and an bacterial inoculum of 5×10^5 CFU/ml. Plates were read after 20-24 h incubation at 35° C. in ambient air. MICs were recorded as the lowest concentration that inhibited visible growth.
Both tables show the MIC values of the various peptides for Methicillin Resistant Staphylococcus aureus (MRSA), Escherichia coli and/or Candida albicans. […]

Q: Which “antimicrobial activity (MIC) compared with the reference peptide” value does the source give for RRRRSWC [RRRRSWC (SEQ ID NO:142)] here?
A: acceptable antimicrobial activity

Q: For RRRRQWC [RRRRQWC (SEQ ID NO:141)], which “antimicrobial activity (MIC) compared with the reference peptide” value is on record?
A: acceptable antimicrobial activity

Q: For RRRRSVC [RRRRSVC (SEQ ID NO:143)], which “antimicrobial activity (MIC) compared with the reference peptide” value is on record?
A: acceptable antimicrobial activity
